{"source": "patent US4847300A", "about": "“Use of alpha-2I selective adrenergic receptor agonists in memory enhancement” (priority 1986, dated 1989)", "key": {"[1]": {"conditions": "clinical blood pressure studies; cited from earlier work"}, "[2]": {"system": "aged monkeys", "test": "variable delayed response task (spatial working memory) in aged monkeys", "conditions": "for Delayed Response Performance (% change from placebo control): mean; for Percent Improvement: at individual optimal dose; for Optimal dose: i.m."}, "[3]": {"system": "aged monkeys", "test": "blood pressure study in awake chaired aged monkeys", "type": "in vivo, rhesus monkeys", "conditions": "for Systolic Blood Pressure, change vs placebo control: mean", "experimental": "In order to measure blood pressure in the awake, behaving monkey, three aged animals were adapted to primate chair restraint for several weeks. Blood pressure was measured using a pediatric digital blood pressure monitor. Each day the animals were […] immediately injected with the drug or saline. Fifteen minutes later, three blood pressure measurements were taken. […] Following memory testing, three more blood pressure measurements were taken before the monkey was returned to its home cage. The average blood pressure response before and after memory testing was calculated; drug response was compared to the previous response on saline Drug administration was initiated only after a stable blood pressure baseline was apparent."}, "[4]": {"target": "alpha-2R subtype", "conditions": "cited from earlier work"}, "[5]": {"target": "alpha-2I subtype", "conditions": "second figure of the alpha-2R/alpha-2I Ki ratio; cited from earlier work"}, "[6]": {"system": "aged monkeys", "conditions": "rhesus monkey, in vivo", "excerpt": "Sedation was rated using a 5 point scale where 0=normal level of arousal, I=quiet, II=sedated, III=intermittent sleeping and IV=too sedated to test."}, "[7]": {"system": "rhesus monkeys", "conditions": "catecholamine-depleted association cortex; cited from earlier work"}}}
{"smiles": "N=C(N)NC(=O)Cc1c(Cl)cccc1Cl", "note": "[Guanfacine, guanfacine]", "values": [{"measurement": "potency relative to clonidine", "setting": "[1]", "value": "1/10"}, {"measurement": "average optimal dose for improving memory", "setting": "[2]; aged monkeys, equimolar clonidine dose", "value": "about 0.001 mg/kg"}, {"measurement": "aged monkeys with improved memory", "setting": "[2]; applicants' experiments", "value": "11/11"}, {"measurement": "Delayed Response Performance (% change from placebo control)", "setting": "[2]; dose .0001 mg/kg i.m. (equimolar clonidine dose)", "value": "+9%"}, {"measurement": "Delayed Response Performance (% change from placebo control)", "setting": "[2]; dose .001 mg/kg i.m. (equimolar clonidine dose)", "value": "+10%"}, {"measurement": "Delayed Response Performance (% change from placebo control)", "setting": "[2]; dose .01 mg/kg i.m. (equimolar clonidine dose)", "value": "+10%"}, {"measurement": "Delayed Response Performance (% change from placebo control)", "setting": "[2]; dose .05 mg/kg i.m. (equimolar clonidine dose)", "value": -6, "unit": "%"}, {"measurement": "duration of memory effects", "setting": "[2]; low doses", "value": "up to four days"}, {"measurement": "dose range in which effective", "setting": "[2]; memory improvement, summary statement", "value": "nanogram/kg range"}, {"measurement": "Percent Improvement", "setting": "[2]; monkey #107", "value": 20, "unit": "%"}, {"measurement": "Optimal dose", "setting": "[2]; monkey #107, equimolar clonidine dose", "value": 10, "unit": "µg/kg"}, {"measurement": "Percent Improvement", "setting": "[2]; monkey #113", "value": 23, "unit": "%"}, {"measurement": "Optimal dose", "setting": "[2]; monkey #113, equimolar clonidine dose", "value": 0.001, "unit": "µg/kg"}, {"measurement": "Percent Improvement", "setting": "[2]; monkey #121", "value": 10, "unit": "%"}, {"measurement": "Optimal dose", "setting": "[2]; monkey #121, equimolar clonidine dose", "value": 0.001, "unit": "µg/kg"}, {"measurement": "Percent Improvement", "setting": "[2]; monkey #124", "value": 18, "unit": "%"}, {"measurement": "Optimal dose", "setting": "[2]; monkey #124, equimolar clonidine dose", "value": 0.1, "unit": "µg/kg"}, {"measurement": "Percent Improvement", "setting": "[2]; monkey #343", "value": 13, "unit": "%"}, {"measurement": "Optimal dose", "setting": "[2]; monkey #343, equimolar clonidine dose", "value": 0.01, "unit": "µg/kg"}, {"measurement": "Percent Improvement", "setting": "[2]; monkey #444", "value": 13, "unit": "%"}, {"measurement": "Optimal dose", "setting": "[2]; monkey #444, equimolar clonidine dose", "value": 10, "unit": "µg/kg"}, {"measurement": "Percent Improvement", "setting": "[2]; monkey #445", "value": 20, "unit": "%"}, {"measurement": "Optimal dose", "setting": "[2]; monkey #445, equimolar clonidine dose", "value": 1, "unit": "µg/kg"}, {"measurement": "Percent Improvement", "setting": "[2]; monkey #446", "value": 10, "unit": "%"}, {"measurement": "Optimal dose", "setting": "[2]; monkey #446, equimolar clonidine dose", "value": 10, "unit": "µg/kg"}, {"measurement": "Percent Improvement", "setting": "[2]; monkey #447", "value": 20, "unit": "%"}, {"measurement": "Optimal dose", "setting": "[2]; monkey #447, equimolar clonidine dose", "value": 1, "unit": "µg/kg"}, {"measurement": "Percent Improvement", "setting": "[2]; monkey #448", "value": 23, "unit": "%"}, {"measurement": "Optimal dose", "setting": "[2]; monkey #448, equimolar clonidine dose", "value": 0.01, "unit": "µg/kg"}, {"measurement": "Percent Improvement", "setting": "[2]; monkey #449", "value": 20, "unit": "%"}, {"measurement": "Optimal dose", "setting": "[2]; monkey #449, equimolar clonidine dose", "value": 1, "unit": "µg/kg"}, {"measurement": "Systolic Blood Pressure, change vs placebo control", "setting": "[3]; dose .0001 mg/kg i.m.", "value": "+3 mm Hg"}, {"measurement": "Systolic Blood Pressure, change vs placebo control", "setting": "[3]; dose .001 mg/kg i.m.", "value": "+6 mm Hg"}, {"measurement": "Systolic Blood Pressure, change vs placebo control", "setting": "[3]; dose .01 mg/kg i.m.", "value": -11, "unit": "mm Hg"}, {"measurement": "Systolic Blood Pressure, change vs placebo control", "setting": "[3]; dose .05 mg/kg i.m.", "value": -21, "unit": "mm Hg"}, {"measurement": "average change in systolic blood pressure", "setting": "[3]; low, memory-improving doses", "value": "+6 mm Hg"}, {"measurement": "Ki", "setting": "[4]", "value": 0.34, "unit": "µM"}, {"measurement": "Ki", "setting": "[5]", "value": 0.0226, "unit": "µM"}, {"measurement": "Sedation Score", "setting": "[6]", "value": 0}, {"measurement": "sedation scores", "setting": "[6]", "value": 0}]}
{"smiles": "N[C@@H](Cc1ccc(O)c(O)c1)C(=O)O", "note": "[L-dopa]", "values": [{"measurement": "effect on behavioral deficit in spatial delayed alternation", "setting": "[7]", "value": "pharmacologically reversed"}]}
{"smiles": "CN1CCc2cccc3c2[C@H]1Cc1ccc(O)c(O)c1-3", "note": "[apomorphine]", "values": [{"measurement": "effect on behavioral deficit in spatial delayed alternation", "setting": "[7]", "value": "pharmacologically reversed"}]}
